According to the supplement of paper PMC10920090:

Experiments:
Conditions in all cases: 72 h
[1] = test system: BT-474; assay: drug sensitivity score (DSS), cytotoxicity CellTox Green; higher = more cytotoxic; extreme values may be limits of the assay
Description: (§1)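 Targeted FIMM drug screen of 23 compounds at 5 concentrations over a 10,000-fold range in 384-well plates, 1250 cells/well, 72 h at 37 °C. Read-outs were CellTiter-Glo viability and CellTox Green cytotoxicity, normalised to DMSO and benzethonium chloride controls and summarised as drug sensitivity score (DSS). Cells stably transduced with shScramble or one of two shPPFIA1 constructs (shPPFIA1_1 TRCN0000002969, shPPFIA1_2 TRCN0000342514).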

[2] = test system: UT-SCC-24A; assay: as above
Description: as §1

[3] = test system: MDA-MB-231; assay: as above
[4] = test system: MDA-MB-231; assay: drug sensitivity score (DSS), cell viability CellTiter-Glo; higher = more sensitive; extreme values may be limits of the assay
[5] = test system: BT-474; assay: as above
Description: as §1

[6] = test system: UT-SCC-24A; assay: as above
Description: as §1

Structure (SMILES) | drug sensitivity score ([3]; shRNA: shPPFIA1_1) [DSS] | drug sensitivity score ([3]; shRNA: shScramble) [DSS] | drug sensitivity score ([4]; shRNA: shPPFIA1_1) [DSS] | drug sensitivity score ([4]; shRNA: shScramble) [DSS] | other results
C#Cc1cccc(Nc2ncnc3cc(OCCOC)c(OCCOC)cc23)c1 [Erlotinib] | 0 | 0 | 2.8 | 4 | drug sensitivity score ([1]; shRNA: shPPFIA1_1): 0.8 DSS; drug sensitivity score ([1]; shRNA: shPPFIA1_2): 1.1 DSS; drug sensitivity score ([1]; shRNA: shScramble): 1.2 DSS; drug sensitivity score ([2]; shRNA: shPPFIA1_1): 17.8 DSS; drug sensitivity score ([2]; shRNA: shPPFIA1_2): 11.4 DSS; drug sensitivity score ([2]; shRNA: shScramble): 8.3 DSS; drug sensitivity score ([5]; shRNA: shPPFIA1_1): 2.5 DSS; drug sensitivity score ([5]; shRNA: shPPFIA1_2): 2.9 DSS; drug sensitivity score ([5]; shRNA: shScramble): 3.9 DSS; drug sensitivity score ([6]; shRNA: shPPFIA1_1): 20.8 DSS; drug sensitivity score ([6]; shRNA: shPPFIA1_2): 14 DSS; drug sensitivity score ([6]; shRNA: shScramble): 11.9 DSS
CN[C@@H](C)C(=O)N[C@H](C(=O)N1CCC[C@H]1c1nc(C(=O)c2ccc(F)cc2)cs1)C1CCCCC1 [NVP-LCL161] |  |  |  |  | drug sensitivity score ([1]; shRNA: shPPFIA1_1): 2.4 DSS; drug sensitivity score ([1]; shRNA: shPPFIA1_2): 3.3 DSS; drug sensitivity score ([1]; shRNA: shScramble): 1.3 DSS; drug sensitivity score ([2]; shRNA: shPPFIA1_1): 10.2 DSS; drug sensitivity score ([2]; shRNA: shPPFIA1_2): 12.8 DSS; drug sensitivity score ([2]; shRNA: shScramble): 8.1 DSS; drug sensitivity score ([5]; shRNA: shPPFIA1_1): 1 DSS; drug sensitivity score ([5]; shRNA: shPPFIA1_2): 1.4 DSS; drug sensitivity score ([5]; shRNA: shScramble): 0.7 DSS; drug sensitivity score ([6]; shRNA: shPPFIA1_1): 4.5 DSS; drug sensitivity score ([6]; shRNA: shPPFIA1_2): 5.7 DSS; drug sensitivity score ([6]; shRNA: shScramble): 4.2 DSS
O=C(c1ccc(C(=O)N2CCC(N3CCCC3)CC2)c(Nc2ccccc2)c1)N1CCC(N2CCCC2)CC1 [UNC1215] | 0 | 0 | 0.4 | 0.3 | 
CCCCNc1ncc(C(=O)NCc2ccc(-n3ccnc3)cc2)c(NC2CCC(O)CC2)n1 (configuration not stated) [UNC2881] | 0 | 0 | 0 | 0.5 | 
NC(=O)c1cccc(-c2cccc(OC(=O)NC3CCCCC3)c2)c1 [URB597] | 0 | 0 | 0.2 | 0 | 
CC(C)Nc1cc(-c2c[nH]c(C(=O)N[C@H](CO)c3cccc(Cl)c3)c2)c(Cl)cn1 [Ulixertinib] | 0 | 2.7 | 0 | 2.1 | 
Cn1ncc(Cl)c1-c1cc(C(=O)N[C@H](CN)Cc2ccc(F)c(F)c2)oc1Cl [Uprosertib] | 0 | 0 | 0 | 0 | 
Oc1ncc(N(CCCl)CCCl)c(O)n1 [Uramustine] | 0 | 0 | 0 | 0 | 
CS(=O)(=O)c1ccc(-c2cnc(N)c(C(=O)Nc3ccccc3)n2)cc1 [VE-821] | 0 | 0 | 0 | 0 | 
O=C(O)CC1CC(c2ccccc2)=NO1 (configuration not stated) [VGX-1027] | 0 | 0 | 0 | 0 | 
CNC(=O)c1ccccc1Nc1cc(Nc2ccc(N3CCOCC3)cc2OC)ncc1C(F)(F)F [VS-4718] | 0 | 0 | 0 | 0 | 
O=c1ncn2nc(Sc3ccc(F)cc3F)ccc2c1-c1c(Cl)cccc1Cl [VX 745] | 0 | 0 | 0 | 0 | 
CCCC(CCC)C(=O)O [Valproic acid] | 0 | 0 | 0 | 0 | 
CCCCC(=O)OCC(=O)[C@]1(O)Cc2c(O)c3c(c(O)c2[C@@H](O[C@H]2C[C@H](NC(=O)C(F)(F)F)[C@H](O)[C@H](C)O2)C1)C(=O)c1c(OC)cccc1C3=O [Valrubicin] | 0 | 0 | 0.8 | 7 | 
COc1cc2/c(=N/c3ccc(Br)cc3F)nc[nH]c2cc1OCC1CCN(C)CC1 [Vandetanib] | 0 | 2 | 3.6 | 0 | 
CCc1c(C(=O)C(N)=O)c2c(OCC(=O)O)cccc2n1Cc1ccccc1 [Varespladib] | 0 | 0 | 0 | 0 | 
Clc1ccc(Nc2nnc(Cc3ccncc3)c3ccccc23)cc1 [Vatalanib] | 0 | 0 | 0 | 0 | 

Structure (SMILES) | drug sensitivity score ([3]; shRNA: shPPFIA1_1) [DSS] | drug sensitivity score ([3]; shRNA: shScramble) [DSS] | drug sensitivity score ([4]; shRNA: shPPFIA1_1) [DSS] | drug sensitivity score ([4]; shRNA: shScramble) [DSS] | other results
C[C@]1(c2nc3c(C(N)=O)cccc3[nH]2)CCCN1 [Veliparib] | 0 | 0 | 0 | 0 | 
CCCS(=O)(=O)Nc1ccc(F)c(C(=O)c2c[nH]c3ncc(-c4ccc(Cl)cc4)cc23)c1F [Vemurafenib] | 0 | 1.8 | 0 | 0 | 
CC1(C)CCC(CN2CCN(c3ccc(C(=O)NS(=O)(=O)c4ccc(NCC5CCOCC5)c([N+](=O)[O-])c4)c(Oc4cnc5[nH]ccc5c4)c3)CC2)=C(c2ccc(Cl)cc2)C1 [Venetoclax] | 0 | 0 | 0 | 0 | 
O=C(/C=C\n1cnc(-c2cc(C(F)(F)F)cc(C(F)(F)F)c2)n1)NNc1ccccn1 [Verdinexor] | 4.4 | 4.2 | 0 | 5.7 | 
CC[C@]1(O)C[C@@H]2CN(CCc3c([nH]c4ccccc34)[C@@](C(=O)OC)(c3cc4c(cc3OC)N(C)[C@H]3[C@@](O)(C(=O)OC)[C@H](OC(C)=O)[C@]5(CC)C=CCN6CC[C@]43[C@@H]65)C2)C1 [Vinblastine] | 9 | 9.2 | 0 | 9.6 | 
CC[C@]1(O)C[C@H]2CN(CCc3c([nH]c4ccccc34)[C@@](C(=O)OC)(c3cc4c(cc3OC)N(C=O)[C@H]3[C@@](O)(C(=O)OC)[C@H](OC(C)=O)[C@]5(CC)C=CCN6CC[C@]43[C@@H]65)C2)C1 [Vincristine] | 4.9 | 6 | 0 | 8.1 | 
CS(=O)(=O)c1ccc(C(=O)Nc2ccc(Cl)c(-c3ccccn3)c2)c(Cl)c1 [Vismodegib] | 2.2 | 0 | 0 | 0 | 
CC[C@@H]1C(=O)N(C)c2cnc(Nc3ccc(C(=O)N[C@H]4CC[C@H](N5CCN(CC6CC6)CC5)CC4)cc3OC)nc2N1C(C)C [Volasertib] | 0 | 0 | 0 | 6.6 | 
O=C(CCCCCCC(=O)Nc1ccccc1)NO [Vorinostat] | 6.9 | 2.5 | 2.4 | 6.6 | 
CCn1c(=O)c(-c2cc[nH]n2)cc2c(C)nc(N)nc21 [Voxtalisib] | 0 | 0.2 | 0.8 | 4.3 | 
Oc1nc(-c2ccc(C(F)(F)F)cc2)nc2c1CSCC2 [XAV-939] | 1.2 | 0 | 1.6 | 0.5 | 
O=C(Nc1ccc(-c2ccnc(Nc3ccc(N4CCOCC4)cc3)n2)cc1)C1CCCN1 (configuration not stated) [XL019] | 0 | 0 | 0 | 0.6 | 
COc1cc2c(Nc3ccc(Cl)c(Cl)c3F)ncnc2cc1OC[C@@H]1C[C@@H]2CN(C)C[C@@H]2C1 [XL-647] | 0 | 0 | 0 | 0 | 
COCC[n+]1c2c(n(Cc3cnccn3)c1C)C(=O)c1ccccc1C2=O [YM155] | 20.5 | 34.6 | 24.1 | 33.4 | 
FC(F)c1nc2ccccc2n1-c1nc(N2CCOCC2)nc(N2CCOCC2)n1 [ZSTK474] | 0 | 0 | 0.2 | 6.1 | 
c1ccc(Cn2c(-c3ccc(OC[C@H](C4CCNCC4)n4c(-c5ccccc5)nc5ccccc54)cc3)nc3ccccc32)cc1 [deltarasin] | 9.2 | 7.3 | 5.7 | 7.3 | 
